Measured values as given in US10584127B2, “3,3-difluoropiperidine carbamate heterocyclic compounds as NR2B NMDA receptor antagonists” (Rugen Holdings (Cayman) Limited, priority 2015, dated 2020).

What was measured:
[1] = test system: NMDA receptor (all subtypes), native rat brain receptors; experiment: [3H] MK-801 radioligand binding assay, rat brain membranes; conditions: 2 nM [3H] MK-801, rat brain membranes
Method: This example describes NMDA receptor binding assays using two different radioligands, [^3H] […] An established binding assay using the non-selective NMDA receptor ligand [^3H] […] The binding assay method using the NR2B selective receptor ligand [^3H] […] This assay serves as a selective measure of NR2B receptor binding activity in native rat brain receptors. Briefly, the brains of Male Wistar rats were homogenized (Polytron) before centrifugation at 40,000×g for 15 minutes at 4° C. After 2 washes, the final pellet was homogenized and stored at −80° C. The protein concentration was determined by Bradford assay.
Test compounds were solubilized at 10 mM in DMSO. Then the dilutions were performed with a constant solvent concentration (1% DMSO) in the assay.
After incubation for 4.5 h at room temperature, the assays were filtered on GF/B filters pretreated with 0.3% (v/v) PEI with a Brandel system for [^3H] […] The experiment was performed in duplicate (n=2).

CYP2D6 = CYP2D6 (Homo sapiens (Human), UniProt P10635); experiment: CYP P450 enzyme inhibition, pooled human liver microsome; assay type: in vitro ADME; conditions: HLM, dextromethorphan 5 μM
cloned human NR1/NR2A = cloned human NR1/NR2A (Homo sapiens (Human), UniProt Q12879); experiment: NR2A antagonist activity, Fluo-4 calcium influx in HEK293 cells; assay type: cell-based; conditions: glutamate 100 μM, glycine 50 μM
[2] = test system: electroconvulsive threshold (tonic convulsions); experiment: Electroconvulsive Threshold Test (ECT); assay type: in vivo, rats; conditions: rats
Method: Rats were administered ECS (rectangular current: 0.6 ms pulse width, 1.5 s duration, 200 Hz) via earclip electrodes connected to a constant current shock generator (Ugo Basile: type 7801). Test compounds were administered by oral gavage (p.o.) 1 hour before the test at a dose volume of 5 mL/kg.
Treatment groups of 20 rats were exposed to ECS as follows: The first animal was exposed to 30 mA of ECS. […] (increases of 5 mA) until the first tonic convulsion was observed. Once the first tonic convulsion was observed, the intensity of ECS was decreased by 2 mA for the next animal and then decreased or increased by 2 mA from animal to animal depending on whether the previous animal convulsed or not. If the first animal did convulse (tonic convulsions) within 5 seconds, animal n°2 is exposed to 25 mA, etc . . . (decreases of 5 mA) until the absence of tonic convulsions was observed. At this point, the intensity of ECS was increased by 2 mA for the next animal and then decreased or increased by 2 mA from animal to animal depending on whether the previous animal convulsed or not. The minimum current intensity applied is 5 mA and the maximum 95 mA. The first 5 animals serve to approach threshold current and were not included in the analysis. The results are presented as the mean current intensity administered to the final 15 animals of a group. The test was performed blind. A positive percent change indicates an anticonvulsant effect. A negative percent change indicates a proconvulsant effect. The test substance was evaluated at 4 doses, typically using 0.5% dimethylsulfoxide, 4% hydroxypropyl-b-cyclodextrin water as a vehicle, and administered p.o. 60 minutes before ECS, and compared with a vehicle control group. Diazepam (16 mg/kg p.o.), administered under the same experimental conditions, was used as reference substance. The experiment included 6 groups. Data with the test substance was analyzed by comparing treated groups with vehicle control using one-way ANOVA followed by Dunnett's t tests.

[3] = test system: immobility in forced swim test; experiment: Forced Swim Test (FST) in mice; assay type: in vivo
Description: (§1) The forced swim test (FST) also known at the behavioural despair test was used to evaluate antidepressant activity (Porsolt et al., 1977 Arch. Int. Pharmacodyn. 229: 327-336, Porsolt et al., 1977, Eur. J. Pharmacol. 47:379-391). Mice or rats that are forced to swim in a situation from which they cannot escape, rapidly become immobile. Drugs with antidepressant activity, such as imipramine, reduce the amount of time spent in the immobile state. Therefore, the amount of immobility time during a test conducted after drug administration represents a useful indicator of antidepressant activity (Lucki et al 2001 Psychopharmacology 155:315-322; Porsolt et al., 1977, Nature 266:730-732).
(§2) Test compound E1-8.2 was administered as the free base.
Testing for antidepressant activity was conducted in rats or mice according to the general procedures below.
Mice were evaluated in a single swimming test session of 6 minutes. Mice were placed in a transparent plastic cylinder 24 cm high with a diameter of 13 cm containing 10 cm of water with ambient temperature control generally from 22±2° C. Mice were placed in the water for 6 minutes and the duration of immobility during the last 4 minutes was measured.
Animals were observed by a blinded observer. […] The amount of time each animal spent in the immobile state (and the latency to the first bout of immobility) was recorded and used for statistical analysis of compound effect. Group differences were evaluated by student's t-test (reference substance) or one-way ANOVA followed by post-hoc Dunnett's test (test substances). […]
Male mice (strain NLMN) weighing 25-35 g were used for testing. […] The mice were videotaped for 6 minutes, and the last 4 minutes of video were analyzed by a blinded observer off-line. […] The amount of time each animal spent in the immobile state was recorded and used for statistical analysis of compound effect. Group differences were evaluated by student's t-test or one-way ANOVA followed by post-hoc Dunnett's test. […]

[4] = test system: immobility in forced swim test; experiment: Forced Swim Test (FST) in rats; assay type: in vivo
Description: as §1
Test compound E1-8.2 was administered as the free base. […]
Male Wistar rats weighing 197-251 g were used for the rat test. Rats were evaluated according to a two-session procedure with a swimming session of 15 minutes on the first day of the experiment (Session 1) followed 24 hours later by a 5-minute swimming test (Session 2). […] Rats were placed in the water 24 h later for 5 minutes (Session 2) and the duration of immobility was measured.
Animals were observed by a blinded observer. […] The amount of time each animal spent in the immobile state (and the latency to the first bout of immobility) was recorded and used for statistical analysis of compound effect. […]

[5] = test system: pentylenetetrazole-induced convulsions; experiment: Pentylenetetrazole (PTZ) Seizure Test; assay type: in vivo, rats; conditions: 10 mg/kg p.o., mesylate salt, PTZ 100 mg/kg s.c.
Method: Rats, placed in individual macrolon cages (25×19×13 cm), were injected with pentylenetetrazole (PTZ) (100 mg/kg s.c.). The occurrence and latency of clonic and tonic convulsions and death were noted over a 30 minute period. 15 rats were studied per group. The test was performed blind.
as §2
Compounds were evaluated typically using 0.5% dimethylsulfoxide, 4% hydroxypropyl-b-cyclodextrin water as a vehicle at 1 or more doses (e.g., 1, 3 and 10 mg/kg), administered p.o. 30 minutes before PTZ, and compared with a vehicle control group. Diazepam (16 mg/kg p.o.), administered 60 minutes before PTZ, was used as reference substance. The experiment was performed over 2 separate sub-experiments with N=7 to 8 animals per group and per sub-experiment. Quantitative data (latencies) with the test substance was analyzed by comparing treated groups with vehicle control using Kruskal-Wallis test followed by Mann-Whitney U test. Quantitative data with the reference substance was analyzed using Mann-Whitney U test. Quantal data (frequencies) was analyzed by comparing treated groups with vehicle control using Fisher's Exact Probability tests (*=p<0.05; **=p<0.01; ***=p<0.001).

Sequence of CYP2D6 (P10635 whole entry): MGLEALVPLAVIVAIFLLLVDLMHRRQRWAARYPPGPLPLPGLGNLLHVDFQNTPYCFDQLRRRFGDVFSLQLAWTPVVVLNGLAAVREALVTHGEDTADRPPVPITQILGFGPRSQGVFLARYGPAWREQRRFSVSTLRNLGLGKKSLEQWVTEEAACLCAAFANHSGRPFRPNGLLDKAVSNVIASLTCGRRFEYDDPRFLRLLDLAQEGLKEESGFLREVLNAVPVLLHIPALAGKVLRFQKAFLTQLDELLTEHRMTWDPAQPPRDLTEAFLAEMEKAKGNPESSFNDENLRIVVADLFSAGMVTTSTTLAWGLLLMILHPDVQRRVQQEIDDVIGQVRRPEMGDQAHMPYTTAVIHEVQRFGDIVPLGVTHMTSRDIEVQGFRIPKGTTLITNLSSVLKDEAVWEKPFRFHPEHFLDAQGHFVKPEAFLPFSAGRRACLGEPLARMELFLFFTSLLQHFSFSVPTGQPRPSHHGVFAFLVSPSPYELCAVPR
Sequence of cloned human NR1/NR2A (Q12879 23-1464, other chains not shown): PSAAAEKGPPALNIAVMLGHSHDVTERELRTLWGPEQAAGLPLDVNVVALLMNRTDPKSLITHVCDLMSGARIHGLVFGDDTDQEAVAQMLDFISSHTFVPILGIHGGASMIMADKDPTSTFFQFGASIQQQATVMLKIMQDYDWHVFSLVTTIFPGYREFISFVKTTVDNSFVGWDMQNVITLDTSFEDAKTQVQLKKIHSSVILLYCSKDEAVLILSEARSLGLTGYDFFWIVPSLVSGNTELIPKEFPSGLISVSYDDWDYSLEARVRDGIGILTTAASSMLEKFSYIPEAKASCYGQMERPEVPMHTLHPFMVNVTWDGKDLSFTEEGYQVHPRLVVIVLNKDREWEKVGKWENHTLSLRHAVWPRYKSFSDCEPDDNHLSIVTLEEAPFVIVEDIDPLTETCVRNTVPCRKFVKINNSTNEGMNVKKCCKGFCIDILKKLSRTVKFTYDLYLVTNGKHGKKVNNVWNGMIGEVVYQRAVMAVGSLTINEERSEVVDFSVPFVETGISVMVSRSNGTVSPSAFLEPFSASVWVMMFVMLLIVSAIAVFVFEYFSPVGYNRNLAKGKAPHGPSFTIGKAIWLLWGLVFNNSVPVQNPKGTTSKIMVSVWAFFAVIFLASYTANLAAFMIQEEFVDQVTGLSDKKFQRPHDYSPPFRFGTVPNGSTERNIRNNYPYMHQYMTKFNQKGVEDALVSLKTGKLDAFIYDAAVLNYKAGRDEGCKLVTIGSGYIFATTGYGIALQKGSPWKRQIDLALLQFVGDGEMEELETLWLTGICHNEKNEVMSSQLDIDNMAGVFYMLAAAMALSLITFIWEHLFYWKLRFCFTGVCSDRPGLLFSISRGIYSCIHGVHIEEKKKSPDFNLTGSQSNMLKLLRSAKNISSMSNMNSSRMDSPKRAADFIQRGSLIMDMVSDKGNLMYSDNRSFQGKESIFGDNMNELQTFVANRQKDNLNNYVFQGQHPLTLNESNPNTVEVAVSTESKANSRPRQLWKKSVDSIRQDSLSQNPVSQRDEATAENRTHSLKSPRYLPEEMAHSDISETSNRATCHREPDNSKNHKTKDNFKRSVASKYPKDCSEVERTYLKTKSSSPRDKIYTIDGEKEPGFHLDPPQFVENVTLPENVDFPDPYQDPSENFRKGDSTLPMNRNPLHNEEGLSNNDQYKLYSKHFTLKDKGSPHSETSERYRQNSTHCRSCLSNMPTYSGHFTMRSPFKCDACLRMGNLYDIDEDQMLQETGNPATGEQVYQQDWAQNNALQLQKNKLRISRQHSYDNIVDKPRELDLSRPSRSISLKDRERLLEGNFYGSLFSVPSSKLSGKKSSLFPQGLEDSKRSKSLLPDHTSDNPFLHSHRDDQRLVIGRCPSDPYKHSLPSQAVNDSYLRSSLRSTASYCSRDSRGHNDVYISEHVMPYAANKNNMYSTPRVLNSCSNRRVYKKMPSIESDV

Structure (SMILES) | partial effect on [3H] MK-801 binding [1] | CYP2D6 @ 10 μM (%) (CYP2D6) | other results
FC(F)(F)c1ccc(C(F)(F)CN2CCC(Nc3ncnc4[nH]ncc34)CC2)cc1 [LX-1, reference compound] | – | 93% | –
Cc1ccc(COC(=O)N2CC[C@H](CNc3ncc4cn[nH]c4n3)C(F)(F)C2)cc1 [Compound E1-8.2, (+)-R-4-methylbenzyl-4-((1H-pyrazolo[3,4-d]pyrimidin-6-ylamino)methyl)-3,3-difluoropiperidine-1-carboxylate] | 33% | 83% | IC50 (cloned human NR1/NR2A): > 10 µM; activity on electroconvulsive threshold ([2]; 0.5 and 2 mpk p.o., free base): modest proconvulsant activity; activity on electroconvulsive threshold ([2]; 10 and 20 mpk p.o., free base): anticonvulsant activity
Cn1c(=O)c2[nH]cnc2n(C)c1=O [theophylline, reference compound] | – | – | activity on electroconvulsive threshold ([2]; 128 mpk p.o.): expected proconvulsant activity
CN(C)CCCN1c2ccccc2CCc2ccccc21 [imipramine] | – | – | antidepressant activity (immobility time) ([3]; 32 mpk i.p. once 30 min before the test): expected antidepressant activity; antidepressant activity (immobility time) ([3]; 64 mpk p.o. once 60 min before the test): expected antidepressant activity; antidepressant activity (immobility time) ([3]; 128 mpk p.o. once 60 minutes before the test on Day 7): expected antidepressant activity; antidepressant activity (immobility time) ([4]; 32 mpk i.p. 3 times: 24 h, 4 h and 30 min before the test (Session 2)): expected antidepressant activity; antidepressant activity (immobility time) ([4]; 64 mpk p.o. 3 times: 24 h, 4 h and 60 min before the test (Session 2)): expected antidepressant activity
Cc1ccc(COC(=O)N2CC[C@H](CNc3cnc(C)cn3)C(F)(F)C2)cc1 [Compound E1-21.26, R-4-methylbenzyl 3,3-difluoro-4-((5-methylpyrazin-2-ylamino)-methyl)piperidine-1-carboxylate] | 41% | 32% | activity on electroconvulsive threshold ([2]; 3 and 10 mpk p.o., mesylate salt): anticonvulsant activity; latency to death, change vs vehicle controls [5]: +31%; number of deaths, change vs vehicle controls [5]: −82%

Now from value to compound, other results behind:

partial effect on [3H] MK-801 binding [1] | CYP2D6 @ 10 μM (%) (CYP2D6) | Structure (SMILES) | other results
49% | 97% | Cc1ccc(COC(=O)N2CC[C@H](CNc3cnccn3)C(F)(F)C2)cc1 [Compound E1-21.2, R-4-methylbenzyl 3,3-difluoro-4-((pyrazin-2-ylamino)methyl)piperidine-1-carboxylate] | –
48% | – | CCc1ccc(COC(=O)N2CC[C@H](CNc3nccn4cnnc34)C(F)(F)C2)cc1 [Compound E1-1.5, R-4-ethylbenzyl 4-(([1,2,4]triazolo[4,3-a]pyrazin-8-ylamino)methyl)-3,3-difluoropiperidine-1-carboxylate] | –
32% | 19% | O=C(OCc1ccc(F)cc1)N1CC[C@H](CNc2nccn3cnnc23)C(F)(F)C1 [Compound E1-1.4, R-4-fluorobenzyl 4-(([1,2,4]triazolo[4,3-a]pyrazin-8-ylamino)methyl)-3,3-difluoropiperidine-1-carboxylate] | –
34% | 14% | Cc1ccc(COC(=O)N2CC[C@H](CNc3nc4ccccn4n3)C(F)(F)C2)cc1 [Compound E1-9.2, (+)-R-4-methylbenzyl 4-(([1,2,4]triazolo[1,5-α]pyridin-2-ylamino)methyl)-3,3-difluoropiperidine-1-carboxylate] | IC50 (cloned human NR1/NR2A): > 10 µM
36% | – | Cc1ccc(COC(=O)N2CC[C@@H](CNc3nccn4cnnc34)C(F)(F)C2)cc1 [Compound E2-1.2, (−)-S-4-methylbenzyl 4-(([1,2,4]triazolo[4,3-a]pyrazin-8-ylamino)methyl)-3,3-difluoropiperidine-1-carboxylate] | –
41% | 37% | O=C(OCc1ccc(Cl)cc1)N1CC[C@H](CNc2nccn3cnnc23)C(F)(F)C1 [Compound E1-1.3, R-4-chlorobenzyl 4-(([1,2,4]triazolo[4,3-a]pyrazin-8-ylamino)methyl)-3,3-difluoropiperidine-1-carboxylate] | –
– | 18% | Cc1ccc(COC(=O)N2CC[C@H](CNc3cncc4nncn34)C(F)(F)C2)cc1 [Compound E1-2.2, R-4-methylbenzyl 4-(([1,2,4]triazolo[4,3-a]pyrazin-5-ylamino)methyl)-3,3-difluoropiperidine-1-carboxylate] | –
